Source: US10695288B2, “Reactive oxygen species (ROS)-responsive compositions and methods thereof” (VANDERBILT UNIVERSITY, priority 2014, dated 2020)

Legend:
[1] = Peroxynitrite scavenging in vitro (Pyrogallol Red bleaching assay); assay type: biochemical; settings: 10 μM peroxynitrite; negative control
Protocol: The ability of PPS microspheres to scavenge peroxynitrite was tested in vitro using a Pyrogallol Red (PGR) bleaching assay. Treatment groups consisting of PBS, blank PPS microspheres (0.5-1.5 mg/mL), tempo-PPS microspheres (0.5 mg/mL), tempol (0.2 mg/mL, hydrophilic analog of tempo-benzoate), and ascorbic acid (negative control, pH adjusted to 7.4) were prepared in a 48-well plate with 500 μL volume per well. A PGR stock solution was prepared in PBS ([…]) and 10 μL was added to each well. Peroxynitrite stock solution was thawed on ice and diluted to a concentration of 1 mM in 0.3 M NaOH. After baseline absorbance of the dye was measured in a plate reader at 540 nm, 5 μL of peroxynitrite was added to each well (final concentration of 10 μM) and absorbance measurements were collected for one hour.

[2] = test system: type II collagen; assay: IVIS imaging of MabCII fluorescence after knee mechanical overload; assay type: in vivo, C57BL/6 mice; settings: knee injection, loading cycles; vs PBS; p=0.0181 for microspheres
Protocol: (§1) For the study, C57BL/6 mice knees were injected with TPCA-1-PPS microspheres, TPCA-1 in its soluble form, or a PBS saline control. The mice were then given loading cycles to induce damage to the knee via the Poulet model of knee overload. At the completion of the loading cycles, the mice were given fluorescent indicators and evaluated using IVIS (in vivo imaging system) for type II collagen (and indicator of cartilage damage), and MMP activity (implicated in the progression of OA). […] This difference was not seen in the mice given the soluble form of TPCA-1 however.
(§2) TPCA-PPS microspheres were made as shown above. Chondrocytes were obtained from porcine cadavers prepared by the University of Tennessee Heath Science Center. MMPSense750 and XenoFluor 680 was obtained from PerkinElmer. Monoclonal antibodies to type II collagen were produced in our lab. C57BL/6 male mice were obtained from Jackson Laboratory (Maine, USA) and was acclimated in a housing facility before experimentation. A custom fit ElectroForce® 3200 (Bose Corp., Minnesota, USA) biomaterials test instrument was used for mechanical loading. The mechanical loading apparatus was custom made to fit the proximal tibia in the upper cup and dorsiflexed ankle in the bottom cup.

[3] = test system: MMP-13 activity; assay: IVIS imaging of MMPSense fluorescence after knee mechanical overload; assay type: in vivo, C57BL/6 mice; settings: knee injection, loading cycles; vs PBS; p=0.0184 for microspheres
Protocol: as §1, §2

[4] = test system: ROS levels in ischemic tissue; assay: Pilot studies with free curcumin in ischemic tissue; assay type: in vivo
[5] = Pilot studies with free curcumin in vitro; assay type: physicochemical
[6] = Superoxide scavenging in vitro (DHE fluorescence, xanthine/xanthine oxidase); assay type: biochemical; settings: 55 μg/mL, one-way ANOVA p<0.0001
Protocol: In vitro superoxide scavenging activity of the tempo-PPS microspheres was evaluated using a dihydroethidium (DHE) fluorescence assay. DHE has been widely used to detect superoxide, which reacts with DHE to form a specific fluorescent product, 2-OH-ethidium (2OH-E). The effects of PPS and tempo-benzoate on superoxide were determined using a superoxide-generating, cell-free enzymatic system containing 0.046 U/ml xanthine oxidase and 0.2 mM xanthine. Xanthine was prepared in PBS−/− as a stock solution (1.21 mg/mL), and the appropriate volume of xanthine stock solution was added to the xanthine oxidase solution to reach the required final concentration. The xanthine/xanthine oxidase solution (100 μL) was added to wells in a black-walled, 96-well plate containing the following treatments: PBS, blank PPS microspheres (55 μg/mL), free tempo-benzoate (dissolved in acetonitrile then diluted to 5% acetonitrile, 55 μg/mL tempo-benzoate), and tempo-PPS microspheres (55 μg/mL microsphere concentration). Each well contained 10 μL of a treatment. […] After 10 minutes, 100 μL of the DHE solution was added to each well (10 uM final DHE concentration) and the fluorescence intensity was measured in a plate reader (Tecan Group Ltd., Mannedorf, Switzerland) over a time frame of 1 hour with an excitation of 405 nm and an emission of 570 nm. […]

[7] = test system: mouse hind limb ischemia model; assay: Speckle variance OCT of vascular morphology in adductor and gastrocnemius regions (Example 2); assay type: in vivo, FVB mice; settings: gastrocnemius muscle, day 3, vs saline
From the text: Briefly, the femoral artery and vein of the right hind limb were ligated with 6-0 sutures proximal to the origins of the superficial epigastric artery and deep branch of the femoral artery, and proximal to the vessels the branch from the femoral artery near the knee. Major side branches were also ligated with 6-0 sutures before the ligated segment of the femoral artery and vein was excised. The incision was closed with interrupted 5-0 nylon sutures. In therapeutic experiments, treatments were injected intramuscularly in the ischemic limb following closure of the skin incision. […]
At 0, 3, 7, 14, 21, and 28 days post-surgery, the hind limb vasculature in the adductor and gastrocnemius muscle regions was imaged using a swept-source optical coherence tomography (OCT) system as described previously (26, 39). […] Speckle variance OCT volumes were acquired non-invasively through the skin in 4 mm×4 mm areas covering the two muscle regions, and average intensity projections in depth were used to visualize all vessels detected within the imaged volume. After image processing was performed to enhance contrast and enable vessel segmentation (39, 40), morphological parameters including vessel area density (total area filled by vessels/total area of imaged region) and vessel length fraction (total vessel length/total area of imaged region) were quantified.

[8] = Hydrogen peroxide scavenging in vitro (Amplex Red, xanthine/xanthine oxidase); assay type: biochemical; settings: 1 hour of incubation, one-way ANOVA p<0.001
Protocol: H2O2-scavenging activity of the PPS microspheres was verified in vitro using an Amplex Red Hydrogen Peroxide/Peroxidase Assay kit according to the manufacturer's instructions. Xanthine and xanthine oxidase were used at the same concentrations as described in the DHE assay to generate a reaction solution containing both superoxide and hydrogen peroxide. The reaction solution was added to wells in a black-walled, 96-well plate containing either PBS, blank PPS microspheres (final concentrations of 60 μg/mL and 7 μg/mL), or free tempo-benzoate (final concentrations of 0.5 mg/mL and 60 μg/mL). The Amplex Red working solution was freshly prepared as described in the kit instructions using the included Amplex Red, horseradish peroxidase, and 1× reaction buffer. The working solution was then added to the wells and fluorescence was measured in a plate reader at 1 hour with an excitation of 530 nm and an emission of 590 nm.

[9] = test system: MMP-13; assay: MMP-13 expression from PCR with TNF-α; assay type: cell-based, porcine; settings: TNF-α alone
From the text: as §2

## O=C1O[C@H]([C@@H](O)CO)C(O)=C1O [Ascorbic acid, ascorbic acid]
[1]
  relative bleaching: 2%

## NC(=O)Nc1sc(-c2ccc(F)cc2)cc1C(N)=O [TPCA-1 in solution, TPCA-1]
[2]
  MabCII fluorescence (exposed type II collagen): not a significant reduction in fluorescence
[3]
  MMPSense fluorescence (MMP-13 activity): not a significant reduction in fluorescence

## COc1cc(/C=C/C(=O)CC(=O)/C=C/c2ccc(O)c(OC)c2)ccc1O [free curcumin, Curcumin]
[4]
  ROS levels in ischemic tissue: exacerbated ROS levels in ischemic tissue
[5]
  behaviour of free curcumin in vitro: formed crystals in vitro

## CC1(C)CC(OC(=O)c2ccccc2)CC(C)(C)N1[O] [free tempo-benzoate, 4-hydroxy-TEMPO benzoate]
[6]
  fluorescent signal from the DHE oxidation product compared to no treatment: significantly reduce fluorescence
[7]; p<0.01
  vessel area density: saline-treated mice have significantly lower vessel area density
[7]; p<0.05
  vessel length fraction: significantly lower in the saline group
[8]
  Amplex Red fluorescence: significantly increases the fluorescent signal

## SOD: bovine SOD (20 U/ml) used as a negative control treatment
[6]
  fluorescent signal from the DHE oxidation product compared to no treatment: further inhibited

## TNF-α
[9]
  increase in MMP-13 expression: ~20 fold
